Measurements as given in patent US12077539B2, “Imidazole and triazole KRAS inhibitors” (Incyte Corporation, priority 2021, dated 2024).

What was measured:
KRAS G12D = KRAS G12D (Homo sapiens, UniProt P01116, G12D); experiment: GDP-GTP exchange assay, KRAS G12D (bodipy-GDP/GppNHp, SOS1); assay type: biochemical; settings: bodipy-loaded KRAS G12D 2.5 nM, 4 hours incubation after GppNHp-SOS1; read-out: G12D_exchange (KRAS_G12D exchange assay IC50)
Description: The inhibitor potency of the exemplified compounds was determined in a fluorescence based guanine nucleotide exchange assay, which measures the exchange of bodipy-GDP (fluorescently labeled GDP) for GppNHp (Non-hydrolyzable GTP analog) to generate the active state of KRAS in the presence of SOS1 (guanine nucleotide exchange factor). Inhibitors were serially diluted in DMSO and a volume of 0.1 μL was transferred to the wells of a black low volume 384-well plate. 5 μL/well volume of bodipy-loaded KRAS G12C diluted to 5 nM in assay buffer (25 mM Hepes pH 7.5, 50 mM NaCl, 10 mM MgCl2 and 0.01% Brij-35) was added to the plate and pre-incubated with inhibitor for 2 hours at ambient temperature. Appropriate controls (enzyme with no inhibitor or with a G12C inhibitor (AMG-510)) were included on the plate. The exchange was initiated by the addition of a 5 μL/well volume containing 1 mM GppNHp and 300 nM SOS1 in assay buffer. The 10 μL/well reaction concentration of the bodipy-loaded KRAS G12C, GppNHp, and SOS1 were 2.5 nM, 500 uM, and 150 nM, respectively. The reaction plates were incubated at ambient temperature for 2 hours, a time estimated for complete GDP-GTP exchange in the absence of inhibitor. […] Fluorescence intensities were measured on a PheraStar plate reader instrument (BMG Labtech) with excitation at 485 nm and emission at 520 nm. […]

KRAS G12C = KRAS G12C (Homo sapiens, UniProt P01116, G12C); experiment: GDP-GTP exchange assay, KRAS G12C (bodipy-GDP/GppNHp, SOS1); assay type: biochemical; settings: bodipy-loaded KRAS G12C 2.5 nM, 2 hours pre-incubation, 2 hours exchange with GppNHp and SOS1; read-out: G12C_exchange (KRAS_G12C exchange assay IC50)
Chain of KRAS G12C (P01116 1-188 isoform P01116-2 G12C): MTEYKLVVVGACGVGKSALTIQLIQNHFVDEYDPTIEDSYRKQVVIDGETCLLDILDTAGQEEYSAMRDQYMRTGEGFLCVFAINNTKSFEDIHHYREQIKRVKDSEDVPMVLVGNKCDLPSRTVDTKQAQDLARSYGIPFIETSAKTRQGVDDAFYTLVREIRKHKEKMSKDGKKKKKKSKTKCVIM
Description: The inhibitor potency of the exemplified compounds was determined in a fluorescence based guanine nucleotide exchange assay, which measures the exchange of bodipy-GDP (fluorescently labeled GDP) for GppNHp (Non-hydrolyzable GTP analog) to generate the active state of KRAS in the presence of SOS1 (guanine nucleotide exchange factor). Inhibitors were serially diluted in DMSO and a volume of 0.1 μL was transferred to the wells of a black low volume 384-well plate. 5 μL/well volume of bodipy-loaded KRAS G12C diluted to 5 nM in assay buffer (25 mM Hepes pH 7.5, 50 mM NaCl, 10 mM MgCl2 and 0.01% Brij-35) was added to the plate and pre-incubated with inhibitor for 2 hours at ambient temperature. Appropriate controls (enzyme with no inhibitor or with a G12C inhibitor (AMG-510)) were included on the plate. The exchange was initiated by the addition of a 5 μL/well volume containing 1 mM GppNHp and 300 nM SOS1 in assay buffer. The 10 μL/well reaction concentration of the bodipy-loaded KRAS G12C, GppNHp, and SOS1 were 2.5 nM, 500 uM, and 150 nM, respectively. The reaction plates were incubated at ambient temperature for 2 hours, a time estimated for complete GDP-GTP exchange in the absence of inhibitor. For the KRAS G12D and G12V mutants, similar guanine nucleotide exchange assays were used with 2.5 nM as final concentration for the bodipy loaded KRAS proteins and with 4 hours and 3 hours incubation after adding GppNHp-SOS1 mixture for G12D and G12V respectively. A cyclic peptide described to selectively bind G12D mutant (Sakamoto et al., BBRC 484.3 (2017), 605-611) or internal compounds with confirmed binding were used as positive controls in the assay plates. Fluorescence intensities were measured on a PheraStar plate reader instrument (BMG Labtech) with excitation at 485 nm and emission at 520 nm.
Either GraphPad prism or XLfit was used to analyze the data. The IC50 values were derived by fitting the data to a four parameter logistic equation producing a sigmoidal dose-response curve with a variable Hill coefficient. Prism equation: Y=Bottom+(Top−Bottom)/(1+10^((Log IC50−X)*Hill slope)); XLfit equation: Y=(A+((B−A)/(1+((X/C)^D)))) where X is the logarithm of inhibitor concentration and Y is the response.

[1] = system: MIA PaCa-2 (KRAS G12C) cells; experiment: Cellular pERK HTRF assay, KRAS_G12C pERK; assay type: cell-based; settings: Homo sapiens, 4 hours incubation, HTRF phospho-ERK 1/2, read-out: G12C_pERK (KRAS_G12C pERK assay IC50)
Description: MIA PaCa-2 (KRAS G12C; ATCC® CRL-1420), A427 (KRAS G12D; ATCC® HTB53), HPAF-II (KRAS G12D; ATCC® CRL-1997) and NCI-H838 (KRAS WT; ATCC® CRL-5844) cells are purchased from ATCC and maintained in RPMI 1640 media supplemented with 10% FBS (Gibco/Life Technologies). The cells are plated at 5000 cells per well (8 uL) into Greiner 384-well low volume, flat-bottom, tissue culture treated white plates and incubated overnight at 37° C., 5% CO2. The next morning, test compound stock solutions are diluted in media at 3× the final concentration, and 4 uL are added to the cells. The plate is mixed by gentle rotation for 30 seconds (250 rpm) at room temperature. The cells are incubated with the KRAS G12C and G12D compounds for 4 hours or 2 hours respectively at 37° C., 5% CO2.
4 uL of 4× lysis buffer with blocking reagent (1:25) (Cisbio) are added to each well and plates are rotated gently (300 rpm) for 30 minutes at room temperature. 4 uL per well of Cisbio anti Phospho-ERK 1/2 d2 is mixed with anti Phospho-ERK 1/2 Cryptate (1:1) are added to each well, mixed by rotation and incubated overnight in the dark at room temperature. Plates are read on the Pherastar plate reader at 665 nm and 620 nm wavelengths. IC50 determination is performed by fitting the curve of inhibitor percent inhibition versus the log of the inhibitor concentration using the GraphPad Prism 7 software.

Chain of KRAS G12D (P01116 1-188 isoform P01116-2 G12D): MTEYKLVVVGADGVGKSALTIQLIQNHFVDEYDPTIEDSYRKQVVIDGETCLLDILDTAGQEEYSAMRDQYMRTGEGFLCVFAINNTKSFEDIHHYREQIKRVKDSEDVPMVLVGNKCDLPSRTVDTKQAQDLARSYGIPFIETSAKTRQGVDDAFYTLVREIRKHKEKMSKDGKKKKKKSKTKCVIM

| SMILES | IC50 (KRAS G12D) [µM] | IC50 (KRAS G12C) [µM] | IC50 [1] [µM] |
| --- | --- | --- | --- |
| CNCCc1nc2c(N3CC(N(C)C)C3)nc3c(=O)n(-c4cc(O)cc5ccccc45)ccc3c2n1[C@H]1[C@H]2CN[C@@H]1C2 (racemic) [Example 3, 1-((1R,4R,5S)-2-azabicyclo[2.1.1]hexan-5-yl)-4-(3-(dimethylamino)azetidin-1-yl)-7-(3-hydroxynaphthalen-1-yl)-2-(2-(methylamino)ethyl)-1,7-dihydro-6H-imidazo[4,5-c][1,7]naphthyridin-6-one] | 0.1 to 1 | – | – |
| C=CC(=O)N1CC[C@H](n2cnc3c(N4CC(N(C)C)C4)nc4c(=O)n(-c5cc(O)cc6ccccc56)ccc4c32)C[C@H]1CC#N [Example 1, 2-((2S,4S)-1-acryloyl-4-(4-(3-(dimethylamino)azetidin-1-yl)-7-(3-hydroxynaphthalen-1-yl)-6-oxo-6,7-dihydro-1H-imidazo[4,5-c][1,7]naphthyridin-1-yl)piperidin-2-yl)acetonitrile] | – | ≤ 0.1 | 1 to 5 |
| CC#CC(=O)N1CC[C@H](n2cnc3c(N4CC(N(C)C)C4)nc4c(=O)n(-c5cc(O)cc6ccccc56)ccc4c32)C[C@H]1CC#N [Example 2, 2-((2S,4S)-1-(but-2-ynoyl)-4-(4-(3-(dimethylamino)azetidin-1-yl)-7-(3-hydroxynaphthalen-1-yl)-6-oxo-6,7-dihydro-1H-imidazo[4,5-c][1,7]naphthyridin-1-yl)piperidin-2-yl)acetonitrile] | – | ≤ 0.1 | 1 to 5 |
| C=CC(=O)N1CC[C@H](n2cnc3c(N4CC(N(C)C)C4)nc4c(c32)CCN(c2cccc3ccccc23)C4)C[C@H]1CC#N [Example 4, 2-((2S,4S)-1-acryloyl-4-(4-(3-(dimethylamino)azetidin-1-yl)-7-(naphthalen-1-yl)-6,7,8,9-tetrahydro-1H-imidazo[4,5-c][1,7]naphthyridin-1-yl)piperidin-2-yl)acetonitrile] | – | 0.1 to 1 | – |
| C=CC(=O)N1CC[C@H](n2cnc3c(N4CC(N(C)C)C4)nc4c(c32)CCN(c2cc(O)cc3ccccc23)C4)C[C@H]1CC#N [Example 5, 2-((2S,4S)-1-acryloyl-4-(4-(3-(dimethylamino)azetidin-1-yl)-7-(3-hydroxynaphthalen-1-yl)-6,7,8,9-tetrahydro-1H-imidazo[4,5-c][1,7]naphthyridin-1-yl)piperidin-2-yl)acetonitrile] | – | ≤ 0.1 | 1 to 5 |
| C=CC(=O)N1CC[C@H](n2cnc3c(N4CC(N(C)C)C4)nc4c(=O)n(-c5cccc6ccccc56)c(C(F)(F)F)cc4c32)C[C@H]1CC#N [Example 6, 2-((2S,4S)-1-acryloyl-4-(4-(3-(dimethylamino)azetidin-1-yl)-7-(naphthalen-1-yl)-6-oxo-8-(trifluoromethyl)-6,7-dihydro-1H-imidazo[4,5-c][1,7]naphthyridin-1-yl)piperidin-2-yl)acetonitrile] | – | ≤ 0.1 | ≤ 0.1 |
| C=CC(=O)N1CCC(n2cnc3c(-c4cccnc4C)nc4c(=O)n(-c5cccc6ccccc56)c(C(F)(F)F)cc4c32)C[C@H]1CC#N (stereo partly drawn) [Example 7, 2-((2S)-1-acryloyl-4-(4-(2-methylpyridin-3-yl)-7-(naphthalen-1-yl)-6-oxo-8-(trifluoromethyl)-6,7-dihydro-1H-imidazo[4,5-c][1,7]naphthyridin-1-yl)piperidin-2-yl)acetonitrile] | – | ≤ 0.1 | ≤ 0.1 |
| C=CC(=O)N1CC[C@H](n2cnc3c(O[C@@H](C)[C@@H]4CCCN4C)nc4c(=O)n(-c5cccc(Cl)c5C)c(C(F)(F)F)cc4c32)C[C@H]1CC#N [Example 8, 2-((2S,4S)-1-acryloyl-4-(7-(3-chloro-2-methylphenyl)-4-((S)-1-((S)-1-methylpyrrolidin-2-yl)ethoxy)-6-oxo-8-(trifluoromethyl)-6,7-dihydro-1H-imidazo[4,5-c][1,7]naphthyridin-1-yl)piperidin-2-yl)acetonitrile] | – | ≤ 0.1 | ≤ 0.1 |
| CC#CC(=O)N1CC[C@H](n2cnc3c(O[C@@H](C)[C@@H]4CCCN4C)nc4c(=O)n(-c5cccc(Cl)c5C)c(C(F)(F)F)cc4c32)C[C@H]1CC#N [Example 9, 2-((2S,4S)-1-(but-2-ynoyl)-4-(7-(3-chloro-2-methylphenyl)-4-((S)-1-((S)-1-methylpyrrolidin-2-yl)ethoxy)-6-oxo-8-(trifluoromethyl)-6,7-dihydro-1H-imidazo[4,5-c][1,7]naphthyridin-1-yl)piperidin-2-yl)acetonitrile] | – | ≤ 0.1 | ≤ 0.1 |
| C=C(F)C(=O)N1CC[C@H](n2cnc3c(O[C@@H](C)[C@@H]4CCCN4C)nc4c(=O)n(-c5cccc(Cl)c5C)c(C(F)(F)F)cc4c32)C[C@H]1CC#N [Example 10, 2-((2S,4S)-4-(7-(3-chloro-2-methylphenyl)-4-((S)-1-((S)-1-methylpyrrolidin-2-yl)ethoxy)-6-oxo-8-(trifluoromethyl)-6,7-dihydro-1H-imidazo[4,5-c][1,7]naphthyridin-1-yl)-1-(2-fluoroacryloyl)piperidin-2-yl)acetonitrile] | – | ≤ 0.1 | 0.1 to 1 |
| C=CC(=O)N1CC[C@H](n2nnc3c(N4CC(C)(N(C)C)C4)nc4c(=O)n(-c5cccc(Cl)c5C)c(C(F)(F)F)cc4c32)C[C@H]1CC#N [Example 11, 2-((2S,4S)-1-acryloyl-4-(7-(3-chloro-2-methylphenyl)-4-(3-(dimethylamino)-3-methylazetidin-1-yl)-6-oxo-8-(trifluoromethyl)-6,7-dihydro-1H-[1,2,3]triazolo[4,5-c][1,7]naphthyridin-1-yl)piperidin-2-yl)acetonitrile] | – | ≤ 0.1 | ≤ 0.1 |
| Cc1c(Cl)cccc1-n1c(C(F)(F)F)cc2c(nc(N3CC(C)(N(C)C)C3)c3nnn([C@H]4CCN(C(=O)/C=C/CF)[C@H](CC#N)C4)c32)c1=O [Example 12, 2-((2S,4S)-4-(7-(3-chloro-2-methylphenyl)-4-(3-(dimethylamino)-3-methylazetidin-1-yl)-6-oxo-8-(trifluoromethyl)-6,7-dihydro-1H-[1,2,3]triazolo[4,5-c][1,7]naphthyridin-1-yl)-1-((E)-4-fluorobut-2-enoyl)piperidin-2-yl)acetonitrile] | – | ≤ 0.1 | ≤ 0.1 |
